In patent US9353082B2, “Pharmaceutical compounds” (BIAL—PORTELA & CA, S.A., priority 2008, dated 2016):

Molecular target: T1, FAAH (Rattus norvegicus, UniProt P97612)
T1 construct: Frozen brains (without cerebellum) from Wistar rats were used; from tissue; host or cells: Wistar rat brain (without cerebellum), washed membrane pellets
T1 sequence (P97612 1-579): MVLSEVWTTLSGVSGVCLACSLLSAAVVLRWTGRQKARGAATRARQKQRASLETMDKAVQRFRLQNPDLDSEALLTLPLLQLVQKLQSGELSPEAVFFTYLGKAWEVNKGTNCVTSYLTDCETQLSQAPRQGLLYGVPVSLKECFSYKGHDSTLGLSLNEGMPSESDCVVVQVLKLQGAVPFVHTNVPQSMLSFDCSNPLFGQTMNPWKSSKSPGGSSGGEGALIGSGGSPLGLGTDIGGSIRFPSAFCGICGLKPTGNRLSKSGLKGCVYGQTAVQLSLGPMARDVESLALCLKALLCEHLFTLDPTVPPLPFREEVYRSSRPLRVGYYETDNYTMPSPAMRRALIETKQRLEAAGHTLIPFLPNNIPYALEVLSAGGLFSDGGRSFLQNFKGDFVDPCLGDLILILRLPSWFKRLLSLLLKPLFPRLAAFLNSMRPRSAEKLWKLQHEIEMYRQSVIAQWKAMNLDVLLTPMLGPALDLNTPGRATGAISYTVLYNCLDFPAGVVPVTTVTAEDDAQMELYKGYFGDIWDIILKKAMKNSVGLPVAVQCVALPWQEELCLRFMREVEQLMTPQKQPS
Experiment: In vitro FAAH activity in rat brain membranes, 3H-AEA substrate, % of control
Format: biochemical, Wistar rats
Details: low value = strong inhibitor; for In Vitro FAAH activity, 100 nM: 100 nM test compound
Description: 3. Biological Efficacy of Compounds of the Invention The in vitro test was performed according to the protocol described below. The controls for both in vitro and in vivo were the reaction mix minus the test compounds. Therefore, a low value in Table 1 below for the test compounds indicates a strong inhibitor.
The in vitro pharmaceutical FAAH activity was determined according to the following method:
Frozen brains (without cerebellum) from Wistar rats were used, and each brain was homogenized in 15 ml 1 mM MgCL2, […] HEPES pH 7.0 with Potter Elvejhem (8 strokes at 500 rpm). Homogenates were centrifuged for 20 min at 36000 g at 4° C. (Beckman, 70Ti rotor). Pellets were resuspended in 15 ml of the same buffer and centrifuged under the same conditions. Pellets were resuspended in 15 ml of the same buffer and incubated for 15 min at 37° C. after which they were centrifuged for 20 min at 36000 g at 4° C. Each pellet was then resuspended in 15 ml 3 mM MgCl2, 1 mM EDTA, 50 mM Tris pH 7.4 and protein determined with BioRad Protein Assay (BioRad) using a standard curve of BSA (50-250 μg/ml). The membrane suspensions were aliquoted and stored at −80° C.
The FAAH activity was determined using AEA (labelled with 3H in the ethanolamine part of the molecule) as substrate and measuring the 3H-ethanolamine formed. Reaction mix (total volume of 200 up contained: 2 μM AEA (2 μM AEA+5 nM 3H-AEA), 0.1% fatty acid free BSA, 5 μg protein, in 1 mM EDTA, 10 mM Tris pH 7.6 and 10 μM or 0.1 μM compounds. Stock solutions of the compounds to test (10 mM) were prepared in 100% DMSO and the DMSO concentration in the assay was 0.1%. After a 15 min preincubation period at 37° C., reaction was started by the addition of the substrate solution ([…]). Reaction was carried out for 10 min before termination by the addition of 400 μl activated charcoal suspension (8 g charcoal in 32 ml 0.5 M HCl in continuous agitation). After a 30 min incubation period at room temperature with agitation, charcoal was sedimented by centrifugation in microfuge (10 min at 13000 rpm). 200 μl of the supernatant were added to 800 μl Optiphase Supermix scintillation cocktail previously distributed in 24-well plates. Counts per minute (cpm) were determined in Microbeta TriLux scintillation counter (10 min counting or until s=2).
In each assay blanks (no protein, usually below 200 cpm) and controls (no compound) were present. The results are reported in Table 1 as % of control after blank subtraction.

In Vitro FAAH activity, 100 nM | In Vitro FAAH activity, 10 uM (10 uM test compound) | Structure (SMILES)
0 % of control | – | O=C(N1CCC(c2ccccc2)CC1)n1nnc2ccccc21 [Compound 94, (1H-benzo[d][1,2,3]triazol-1-yl)(4-phenylpiperidin-1-yl)methanone]
0.7 % of control | – | CN(C(=O)n1nnc2cc(-c3cccc(C#N)c3)ccc21)C1CCCCC1 [Compound 95, 5-(3-cyanophenyl)-N-cyclohexyl-N-methyl-1H-benzo[d][1,2,3]triazole-1-carboxamide]
14.3 % of control | – | CN(C(=O)n1nnc2cc(-c3ccc(F)cc3)ccc21)C1CCCCC1 [Compound 96, N-cyclohexyl-5-(4-fluorophenyl)-N-methyl-1H-benzo[d][1,2,3]triazole-1-carboxamide]
0.6 % of control | – | O=C(N1CCCC1)n1nnc2ccccc21 [Compound 98, (1H-benzo[d][1,2,3]triazol-1-yl)(pyrrolidin-1-yl)methanone]
0.5 % of control | – | O=C(N1CCN(c2ccccc2)CC1)n1cnc(-c2ccccc2)c1 [Compound 101, (4-phenyl-1H-imidazol-1-yl)(4-phenylpiperazin-1-yl)methanone]
0.9 % of control | – | O=C(N1CCN(Cc2ccccc2)CC1)n1cnc(-c2ccccc2)c1 [Compound 102, (4-benzylpiperazin-1-yl)(4-phenyl-1H-imidazol-1-yl)methanone]
37.5 % of control | 0 % of control | CN(C(=O)n1cnc(-c2ccccc2)c1)C1CCCCC1 [Compound 103, N-cyclohexyl-N-methyl-4-phenyl-1H-imidazole-1-carboxamide]
94.2 % of control | – | CCN(C(=O)n1nnc2ccccc21)C1CCCCC1 [Compound 104, N-cyclohexyl-N-ethyl-1H-benzo[d][1,2,3]triazole-1-carboxamide]
64.7 % of control | – | Cl.O=C(N1CCC(CCN2CCCC2)CC1)n1nnc2ccccc21 [Compound 105, (1H-benzo[d][1,2,3]triazol-1-yl)(4-(2-(pyrrolidin-1-yl)ethyl)piperidin-1-yl)methanone hydrochloride]
2.3 % of control | – | CN(C(=O)n1nnc2ccc(-c3ccc(F)cc3)cc21)C1CCCCC1 [Compound 106, N-cyclohexyl-6-(4-fluorophenyl)-N-methyl-1H-benzo[d][1,2,3]triazole-1-carboxamide]
13.5 % of control | – | CN(C(=O)n1nnc2cc(-c3cccc(C(=O)O)c3)ccc21)C1CCCCC1 [Compound 107, 3-(1-(cyclohexyl(methyl)carbamoyl)-1H-benzo[d][1,2,3]triazol-5-yl)benzoic acid]
7.4 % of control | – | CN(C(=O)n1nnc2cc(-c3cccc(C(N)=O)c3)ccc21)C1CCCCC1 [Compound 108, 5-(3-carbamoylphenyl)-N-cyclohexyl-N-methyl-1H-benzo[d][1,2,3]triazole-1-carboxamide]
0 % of control | – | CN(C(=O)n1nnc2ccc(-c3cccc(C(N)=O)c3)cc21)C1CCCCC1 [Compound 109, 6-(3-carbamoylphenyl)-N-cyclohexyl-N-methyl-1H-benzo[d][1,2,3]triazole-1-carboxamide]
1.5 % of control | – | O=C(N1CCN(c2ccccc2)CC1)n1cnc(-c2ccccc2)n1 [Compound 111, (3-phenyl-1H-1,2,4-triazol-1-yl)(4-phenylpiperazin-1-yl)methanone]
7.2 % of control | – | NC(=O)c1ccc(-c2cn(C(=O)N3CCN(Cc4ccccc4)CC3)cn2)cc1 [Compound 112, 4-(1-(4-benzylpiperazine-1-carbonyl)-1H-imidazol-4-yl)benzamide]
0 % of control | – | CN(CCc1ccccc1)C(=O)n1nnc2ccccc21 [Compound 115, N-methyl-N-phenethyl-1H-benzo[d][1,2,3]triazole-1-carboxamide]
0.1 % of control | – | O=C(N1CCC(Oc2ccc(Cl)cc2)CC1)n1nnc2ccccc21 [Compound 117, (1H-benzo[d][1,2,3]triazol-1-yl)(4-(4-chlorophenoxy)piperidin-1-yl)methanone]
0 % of control | – | CN(CCCc1ccccc1)C(=O)n1nnc2ccccc21 [Compound 118, N-methyl-N-(3-phenylpropyl)-1H-benzo[d][1,2,3]triazole-1-carboxamide]
0 % of control | – | COc1cccc(CN(C)C(=O)n2nnc3ccccc32)c1 [Compound 119, N-(3-methoxybenzyl)-N-methyl-1H-benzo[d][1,2,3]triazole-1-carboxamide]
0.1 % of control | – | O=C(N1CCC(Oc2ccccc2)CC1)n1nnc2ccccc21 [Compound 120, (1H-benzo[d][1,2,3]triazol-1-yl)(4-phenoxypiperidin-1-yl)methanone]
93 % of control | – | CN1CCN(C2CCN(C(=O)n3nnc4ccccc43)CC2)CC1.Cl [Compound 122, (1H-benzo[d][1,2,3]triazol-1-yl)(4-(4-methylpiperazin-1-yl)piperidin-1-yl)methanone hydrochloride]
0 % of control | – | CN(Cc1cccc(Cl)c1)C(=O)n1nnc2ccccc21 [Compound 123, N-(3-chlorobenzyl)-N-methyl-1H-benzo[d][1,2,3]triazole-1-carboxamide]
1.5 % of control | – | Cl.O=C(N1CCN(Cc2ccccc2)CC1)n1cnc(-c2ccccc2)n1 [Compound 124, (4-benzylpiperazin-1-yl)(3-phenyl-1H-1,2,4-triazol-1-yl)methanone hydrochloride]
53.5 % of control | – | Cl.O=C(N1CCN(Cc2ccccc2)CC1)n1cnc(-c2ccc(OCc3ccccc3)cc2)n1 [Compound 125, (3-(4-(benzyloxy)phenyl)-1H-1,2,4-triazol-1-yl)(4-benzylpiperazin-1-yl)methanone hydrochloride]
0 % of control | – | O=C(N1CCC(OCc2ccccc2)CC1)n1nnc2ccccc21 [Compound 128, (1H-benzo[d][1,2,3]triazol-1-yl)(4-(benzyloxy)piperidin-1-yl)methanone]
0 % of control | – | CN(Cc1ccc(F)cc1)C(=O)n1nnc2ccccc21 [Compound 130, N-(4-fluorobenzyl)-N-methyl-1H-benzo[d][1,2,3]triazole-1-carboxamide]
0 % of control | – | CN(Cc1ccc2ccccc2c1)C(=O)n1nnc2ccccc21 [Compound 131, N-methyl-N-(naphthalen-2-ylmethyl)-1H-benzo[d][1,2,3]triazole-1-carboxamide]
85.1 % of control | – | Cc1ccc(OC2CCN(C(=O)n3cnc(-c4ccc(N5CCN(C)CC5)cc4)n3)CC2)cc1.Cl [Compound 132, (3-(4-(4-methylpiperazin-1-yl)phenyl)-1H-1,2,4-triazol-1-yl)(4-(p-tolyloxy)piperidin-1-yl)methanone hydrochloride]
90.7 % of control | – | O=C(N1CCOCC1)n1cnc(-c2ccc(N3CCN(Cc4ccccc4)CC3)cc2)n1 [Compound 133, (3-(4-(4-benzylpiperazin-1-yl)phenyl)-1H-1,2,4-triazol-1-yl)(morpholino)methanone]
